Results reported in patent US20220145260A1, “METHOD FOR CULTURING HEPATIC EPITHELIOID TISSUE HAVING A STRUCTURE OF CONNECTIONS BETWEEN HEPATOCYTES AND BILE DUCT EPITHELIAL CELL” (SAPPORO MEDICAL UNIVERSITY, priority 2019, published 2022).

Columns and labels:
[1] = tested on: hepatic epithelioid tissue (small hepatocytes and bile duct epithelial cells); assay: Fluorescein diacetate uptake and flow into bile duct in hepatic epithelioid tissue; format: cell-based, mice; conditions: hepatic epithelioid tissue 2 weeks after overlaying Matrigel; fluorescence microscopy
Procedure: After 4 mg/ml of a type I collagen solution was prepared, it was added to wells of a pre-cooled culture plate (manufactured by Greiner Bio-One Co., Ltd.), followed by allowing to stand at 37° C. for 30 to 60 minutes to be gelatinized. Bile duct epithelial cells suspended in a DMEM/F12 medium (manufactured by Sigma Aldrich Co. LLC) containing 10% serum (fetal bovine serum), 1×insulin-transferrin-selenium (ITS), 0.1 μM dexamethasone, 5 ng/ml epidermal growth factor (EGF), and 5 ng/ml hepatocyte growth factor (HGF) were inoculated in a 24-well plate at 5×10^4 cells/well. […] The density in the cultured region of the bile duct epithelial cells in the cultured region was measured with image analysis software (manufactured by Olympus Corporation) by using photographs taken under a microscope. […]
Fluorescein diacetate (FDA) (manufactured by Tokyo Chemical Industry Co., Ltd.) was taken up by the above-mentioned hepatic epithelioid tissue 2 weeks after overlaying Matrigel, and observation was performed with a phase-contrast microscope and a fluorescence microscope. […] FDA is taken by hepatocytes and hydrolyzed to become fluorescein that emits a fluorescence, and then is excreted into the bile canaliculus.

[2] = tested on: hepatic epithelioid tissue (small hepatocytes and bile duct epithelial cells); assay: Uptake of bilirubin by the hepatic epithelioid tissue reconstructed ex vivo; format: cell-based, mice; conditions: 10 μg/ml bilirubin, 3 to 5 days culture; tissue 2 weeks after overlaying Matrigel; Fouchet's reagent staining
[3] = tested on: barrier functions of the epithelial cells in the organoid; assay: Release of CLF into the medium by inhibition of cell-cell adhesion (tight junction barrier) with MβCD; format: cell-based, mice
[4] = tested on: coculture of human CLiP and murine bile duct epithelial cells; assay: CLF transport in coculture of human reprogramming hepatocytes (hCLiP) and murine BEC; format: cell-based; conditions: one week after overlaying collagen gel containing 40% Matrigel
Procedure: In order to produce an organoid reflecting the metabolic functions of humans, coculture of human reprogramming hepatocytes and murine bile duct epithelial cells was performed. Specifically, murine bile duct epithelial cells were cultured on a collagen gel (the amount of collagen contained in the collagen gel: 4 mg/ml) for 5 days, and then CLIP was inoculated. Two days later, human recombinant oncostatin M (hOSM) (manufactured by R&D Systems Inc.) was added, and then 1 day later, a collagen gel containing 40% EHSgel (Matrigel) was overlaid to perform coculture.
(A) It can be seen that the contact surface between murine BEC (the range indicated in red) and human CLIP has been formed during the early stage of coculture (see FIG. 10A). (B) One week after overlaying a collagen gel containing EHSgel (Matrigel), CLF was added.

[5] = tested on: hepatic epithelioid tissue (small hepatocytes and bile duct epithelial cells); assay: Transportation of bile acid analog CLF from hepatocytes to the bile duct; format: cell-based, mice; conditions: after 6 hours; 1 month after overlaying gel

CC(=O)Oc1ccc2c(c1)Oc1cc(OC(C)=O)ccc1C21OC(=O)c2ccccc21 [Fluorescein diacetate]
flow of fluorescein (from FDA hydrolysed in hepatocytes) into the bile duct [1]: fluorescein has flowed into the bile duct

C=CC1=C(C)/C(=C/c2[nH]c(Cc3[nH]c(/C=C4\NC(=O)C(C)=C4C=C)c(C)c3CCC(=O)O)c(CCC(=O)O)c2C)NC1=O [bilirubin]
flow of bilirubin taken up by hepatocytes into bile duct structure [2]: flows into a bile duct structure formed by bile duct epithelial cells

Methyl beta cyclodextrin [MβCD]
concentration dependence of CLF release into the medium ([3]; 25 mM or 75 mM MβCD): release depends on the concentration of MβCD | CLF fluorescence leaked into the medium after MβCD addition ([3]; 25 mM or 75 mM MβCD vs no addition, cells 1 month after addition of EHS-gel): fluorescence was detected in the medium

cholyl lysine fluorescein [CLF]
transport of CLF taken up by human CLiP to murine bile duct tissue [4]: transported to a murine bile duct tissue | transport to the bile duct [5]: transported to the bile duct
